Assays:
Sagittaria pygmaea, L. = test: Preemergence weed control under flooded paddy conditions, SAGPY (Arrowhead (Pygmaea)); assay type: in vivo; conditions: preemergence, flooded paddy
[1] = system: Monochoria vaginalis, Presl.; test: Preemergence weed control under flooded paddy conditions, MOOVA (Monochoria); assay type: in vivo; conditions: preemergence, flooded paddy
[2] = system: Echinochloa oryzoides (Ard.) Fritsch.; test: Preemergence weed control under flooded paddy conditions, ECHORC (Watergrass (Calif.)); assay type: in vivo; conditions: preemergence, flooded paddy
[3] = system: Oryza sativa, (L.) Tebonnet; test: Rice tolerance to post-transplant applications under flooded paddy conditions (Example 187), ORYSAT (Rice, Tebonnet)
Cyperus iria = test: Preemergence weed control under flooded paddy conditions, CYPIR (Rice Flatsedge); assay type: in vivo; conditions: preemergence, flooded paddy
[4] = system: Cyperus serotinus, Rottb.; test: Preemergence weed control under flooded paddy conditions, CYPSE (Flatsedge); assay type: in vivo; conditions: preemergence
[5] = Rate 0.0320 kg/ha, rated 3-4 weeks after treatment
[6] = Rate 0.0620 kg/ha, rated 3-4 weeks after treatment
[7] = Rate 0.1250 kg/ha, rated 3-4 weeks after treatment
[8] = Rate 0.2500 kg/ha, rated 3-4 weeks after treatment
[9] = Rate 0.0320 kg/ha, rated three to four weeks after treatment
[10] = Rate 0.0620 kg/ha, rated three to four weeks after treatment
[11] = Rate 0.1250 kg/ha, rated three to four weeks after treatment
[12] = Rate 0.2500 kg/ha, rated three to four weeks after treatment
Also: meaning of each grade not given here.

## C=CCOC(=O)/C=C/c1nsc2ccc(-n3c(=O)cc(C(F)(F)F)n(C)c3=O)cc12 [Example 566, 1,2-Benzisothiazole-3-acrylic acid, 5-[3,6-dihydro-3-methyl-2,6-dioxo-4-(trifluoromethyl)-1(2H)-pyrimidinyl]-, allyl ester, (E)-]
Sagittaria pygmaea, L.; [5]
  herbicidal effect rating, SAGPY: 0.0
Sagittaria pygmaea, L.; [6]
  herbicidal effect rating, SAGPY: 0.0
Sagittaria pygmaea, L.; [7]
  herbicidal effect rating, SAGPY: 0.0
Sagittaria pygmaea, L.; [8]
  herbicidal effect rating, SAGPY: 9.0
[1]; [5]
  herbicidal effect rating, MOOVA: 9.0
[1]; [6]
  herbicidal effect rating, MOOVA: 9.0
[1]; [7]
  herbicidal effect rating, MOOVA: 9.0
[1]; [8]
  herbicidal effect rating, MOOVA: 9.0
[2]; [5]
  herbicidal effect rating, ECHORC: 3.0
[2]; [6]
  herbicidal effect rating, ECHORC: 3.0
[2]; [7]
  herbicidal effect rating, ECHORC: 3.0
[2]; [8]
  herbicidal effect rating, ECHORC: 6.0
[3]; [6]
  herbicidal effect rating ORYSAT: 3.0
[3]; [7]
  herbicidal effect rating ORYSAT: 5.0
[3]; [8]
  herbicidal effect rating ORYSAT: 6.0
Cyperus iria; [5]
  herbicidal effect rating, CYPIR: 0.0
Cyperus iria; [6]
  herbicidal effect rating, CYPIR: 0.0
Cyperus iria; [7]
  herbicidal effect rating, CYPIR: 0.0
Cyperus iria; [8]
  herbicidal effect rating, CYPIR: 9.0
[4]; [5]
  herbicidal effect rating, CYPSE: 0.0
[4]; [6]
  herbicidal effect rating, CYPSE: 0.0
[4]; [7]
  herbicidal effect rating, CYPSE: 0.0
[4]; [8]
  herbicidal effect rating, CYPSE: 3.0

## CC/C(C=O)=C\c1nsc2ccc(-n3c(=O)cc(C(F)(F)F)n(C)c3=O)cc12 [Example 567, 1,2-Benzisothiazole-3-acrylaldehyde, 5-[3,6-dihydro-3-methyl-2,6-dioxo-4-(trifluoromethyl)-1(2H)-pyrimidinyl]-alpha-ethyl-, (E)-]
Sagittaria pygmaea, L.; [9]
  herbicidal effect rating, SAGPY: 0.0
Sagittaria pygmaea, L.; [10]
  herbicidal effect rating, SAGPY: 0.0
Sagittaria pygmaea, L.; [11]
  herbicidal effect rating, SAGPY: 0.0
Sagittaria pygmaea, L.; [12]
  herbicidal effect rating, SAGPY: 0.0
[1]; [9]
  herbicidal effect rating, MOOVA: 0.0
[1]; [10]
  herbicidal effect rating, MOOVA: 3.0
[1]; [11]
  herbicidal effect rating, MOOVA: 9.0
[1]; [12]
  herbicidal effect rating, MOOVA: 9.0
[2]; [9]
  herbicidal effect rating, ECHORC: 0.0
[2]; [10]
  herbicidal effect rating, ECHORC: 0.0
[2]; [11]
  herbicidal effect rating, ECHORC: 2.0
[2]; [12]
  herbicidal effect rating, ECHORC: 4.0
[3]; [9]
  herbicidal effect rating ORYSAT: 0.0
[3]; [10]
  herbicidal effect rating ORYSAT: 0.0
[3]; [11]
  herbicidal effect rating ORYSAT: 1.0
[3]; [12]
  herbicidal effect rating ORYSAT: 2.0
Cyperus iria; [9]
  herbicidal effect rating, CYPIR: 4.0
Cyperus iria; [10]
  herbicidal effect rating, CYPIR: 9.0
Cyperus iria; [11]
  herbicidal effect rating, CYPIR: 4.0
Cyperus iria; [12]
  herbicidal effect rating, CYPIR: 9.0
[4]; [9]
  herbicidal effect rating, CYPSE: 0.0
[4]; [10]
  herbicidal effect rating, CYPSE: 0.0
[4]; [11]
  herbicidal effect rating, CYPSE: 0.0
[4]; [12]
  herbicidal effect rating, CYPSE: 0.0

## Cc1ccc(OC(C)C(=O)NS(=O)(=O)C(C)C)c(-c2nsc3ccc(-n4c(=O)cc(C(F)(F)F)n(C)c4=O)cc23)c1 (centres unmarked) [Example 568, Propionamide, 2-{{2-{5-[3,6-dihydro-3-methyl-2,6-dioxo-4-(trifluoromethyl)-1(2H)-pyrimidinyl]-1,2-benzisothiazol-3-yl}-p-tolyl}oxy}-N-(isopropylsulfonyl)-]
Sagittaria pygmaea, L.; [9]
  herbicidal effect rating, SAGPY: 0.0
Sagittaria pygmaea, L.; [10]
  herbicidal effect rating, SAGPY: 0.0
Sagittaria pygmaea, L.; [11]
  herbicidal effect rating, SAGPY: 0.0
Sagittaria pygmaea, L.; [12]
  herbicidal effect rating, SAGPY: 0.0
[1]; [9]
  herbicidal effect rating, MOOVA: 0.0
[1]; [10]
  herbicidal effect rating, MOOVA: 9.0
[1]; [11]
  herbicidal effect rating, MOOVA: 9.0
[1]; [12]
  herbicidal effect rating, MOOVA: 9.0
[2]; [9]
  herbicidal effect rating, ECHORC: 0.0
[2]; [10]
  herbicidal effect rating, ECHORC: 3.0
[2]; [11]
  herbicidal effect rating, ECHORC: 5.0
[2]; [12]
  herbicidal effect rating, ECHORC: 6.0
[3]; [9]
  herbicidal effect rating ORYSAT: 0.0
[3]; [10]
  herbicidal effect rating ORYSAT: 0.0
[3]; [11]
  herbicidal effect rating ORYSAT: 1.0
[3]; [12]
  herbicidal effect rating ORYSAT: 3.0
Cyperus iria; [9]
  herbicidal effect rating, CYPIR: 0.0
Cyperus iria; [10]
  herbicidal effect rating, CYPIR: 0.0
Cyperus iria; [11]
  herbicidal effect rating, CYPIR: 5.0
Cyperus iria; [12]
  herbicidal effect rating, CYPIR: 7.0
[4]; [9]
  herbicidal effect rating, CYPSE: 0.0
[4]; [10]
  herbicidal effect rating, CYPSE: 0.0
[4]; [11]
  herbicidal effect rating, CYPSE: 0.0
[4]; [12]
  herbicidal effect rating, CYPSE: 0.0

## CCCS(=O)(=O)NC(=O)C(C)Oc1ccc(C)cc1-c1nsc2ccc(-n3c(=O)cc(C(F)(F)F)n(C)c3=O)cc12 (centres unmarked) [Example 569, Propionamide, 2-{{2-{5-[3,6-dihydro-3-methyl-2,6-dioxo-4-(trifluoromethyl)-1(2H)-pyrimidinyl]-1,2-benzisothiazol-3-yl}-p-tolyl}oxy}-N-(propyl-sulfonyl)-]
Sagittaria pygmaea, L.; [9]
  herbicidal effect rating, SAGPY: 0.0
Sagittaria pygmaea, L.; [10]
  herbicidal effect rating, SAGPY: 0.0
Sagittaria pygmaea, L.; [11]
  herbicidal effect rating, SAGPY: 0.0
Sagittaria pygmaea, L.; [12]
  herbicidal effect rating, SAGPY: 9.0
[1]; [9]
  herbicidal effect rating, MOOVA: 4.0
[1]; [10]
  herbicidal effect rating, MOOVA: 6.0
[1]; [11]
  herbicidal effect rating, MOOVA: 6.0
[1]; [12]
  herbicidal effect rating, MOOVA: 6.0
[2]; [9]
  herbicidal effect rating, ECHORC: 2.0
[2]; [10]
  herbicidal effect rating, ECHORC: 4.0
[2]; [11]
  herbicidal effect rating, ECHORC: 5.0
[2]; [12]
  herbicidal effect rating, ECHORC: 5.0
[3]; [9]
  herbicidal effect rating ORYSAT: 0.0
[3]; [10]
  herbicidal effect rating ORYSAT: 0.0
[3]; [11]
  herbicidal effect rating ORYSAT: 0.0
[3]; [12]
  herbicidal effect rating ORYSAT: 1.0
Cyperus iria; [9]
  herbicidal effect rating, CYPIR: 0.0
Cyperus iria; [10]
  herbicidal effect rating, CYPIR: 0.0
Cyperus iria; [11]
  herbicidal effect rating, CYPIR: 0.0
Cyperus iria; [12]
  herbicidal effect rating, CYPIR: 0.0
[4]; [9]
  herbicidal effect rating, CYPSE: 0.0
[4]; [10]
  herbicidal effect rating, CYPSE: 0.0
[4]; [11]
  herbicidal effect rating, CYPSE: 0.0
[4]; [12]
  herbicidal effect rating, CYPSE: 0.0

## C=CS(=O)(=O)NC(=O)C(C)Oc1ccc(C)cc1-c1nsc2ccc(-n3c(=O)cc(C(F)(F)F)n(C)c3=O)cc12 (centres unmarked) [Example 570, Propionamide, 2-{{2-{5-[3,6-dihydro-3-methyl-2,6-dioxo-4-(trifluoromethyl)-1(2H)-pyrimidinyl]-1,2-benzisothiazol-3-yl}-p-tolyl}oxy}-N-(vinylsulfonyl)-]
Sagittaria pygmaea, L.; [9]
  herbicidal effect rating, SAGPY: 0.0
Sagittaria pygmaea, L.; [10]
  herbicidal effect rating, SAGPY: 0.0
Sagittaria pygmaea, L.; [11]
  herbicidal effect rating, SAGPY: 0.0
Sagittaria pygmaea, L.; [12]
  herbicidal effect rating, SAGPY: 0.0
[1]; [9]
  herbicidal effect rating, MOOVA: 0.0
[1]; [10]
  herbicidal effect rating, MOOVA: 0.0
[1]; [11]
  herbicidal effect rating, MOOVA: 0.0
[1]; [12]
  herbicidal effect rating, MOOVA: 9.0
[2]; [9]
  herbicidal effect rating, ECHORC: 0.0
[2]; [10]
  herbicidal effect rating, ECHORC: 2.0
[2]; [11]
  herbicidal effect rating, ECHORC: 4.0
[2]; [12]
  herbicidal effect rating, ECHORC: 6.0
[3]; [9]
  herbicidal effect rating ORYSAT: 0.0
[3]; [10]
  herbicidal effect rating ORYSAT: 1.0
[3]; [11]
  herbicidal effect rating ORYSAT: 2.0
[3]; [12]
  herbicidal effect rating ORYSAT: 3.0
Cyperus iria; [9]
  herbicidal effect rating, CYPIR: 0.0
Cyperus iria; [10]
  herbicidal effect rating, CYPIR: 0.0
Cyperus iria; [11]
  herbicidal effect rating, CYPIR: 0.0
Cyperus iria; [12]
  herbicidal effect rating, CYPIR: 9.0
[4]; [9]
  herbicidal effect rating, CYPSE: 0.0
[4]; [10]
  herbicidal effect rating, CYPSE: 0.0
[4]; [11]
  herbicidal effect rating, CYPSE: 0.0
[4]; [12]
  herbicidal effect rating, CYPSE: 0.0

From patent EP0908457B1, “3-(1,2-benzisothiazol- and isoxazol-5-Y1)-2,4(1H,3H)-pyrimidinedione or thione and 3-(1,2-benzisothiazol- and isoxazol-5-y1)-4(3H)-pyrimidinone or thione herbicidal agents” (BASF AKTIENGESELLSCHAFT, priority 1997, dated 1999)
